From patent publication US3966718A, “7-β-Acylamino-ceph-3-ems and salts and esters therefor” (Beecham Group Limited, priority 1973, dated 1976) come the findings set out here.

Molecules are shown by their SMILES. Converted amounts (≈) assume the structure as drawn. Where a name gives a salt, the structure may show the parent alone. Read-outs that look alike come from different tables or passages of the source.

Type in all cases: cell-based
Test [1] relates to Staph. aureus Oxford. The experiment in a line: MIC on (nutrient) agar. The note with it: Staphylococcus aureus, read-out: minimum inhibitory concentration (MIC).
Test [2] deals with Staph. aureus Russell. The experiment in a line: MIC on (nutrient) agar. The note with it: Staphylococcus aureus, read-out: minimum inhibitory concentration (MIC).
The test system of test [3] is B. subtilis. The experiment in a line: MIC on (nutrient) agar. The note with it: Bacillus subtilis, read-out: minimum inhibitory concentration (MIC).
Test [4] relates to Strep. pneumoniae CN33. The experiment in a line: MIC on (nutrient) agar. The note with it: Streptococcus pneumoniae, read-out: minimum inhibitory concentration (MIC).
Test [5] concerns β-Haemolytic Strep. CN10. The experiment in a line: MIC on (nutrient) agar. Particulars: read-out: minimum inhibitory concentration (MIC).
Test [6] has as its system Shigella sonnei. Kind of test: MIC on nutrient agar. Particulars: read-out: minimum inhibitory concentration (MIC).
Test [7] concerns Salmonella typhi. Kind of test: MIC on nutrient agar. Particulars: Salmonella enterica, read-out: minimum inhibitory concentration (MIC).
The subject of test [8] is E. coli NCTC 10418. The experiment in a line: MIC on nutrient agar. The note with it: Escherichia coli, NCTC10418; E. coli NCTC 10418, nutrient agar; read-out: minimum inhibitory concentration (MIC).
Test [9] concerns Klebsiella aerogenes A. Kind of test: MIC on nutrient agar. Particulars: read-out: minimum inhibitory concentration (MIC).
The test system of test [10] is Proteus mirabilis C977. Kind of test: MIC on nutrient agar. The note with it: Proteus mirabilis C977, nutrient agar; read-out: minimum inhibitory concentration (MIC).
Where [11] appears, read: Klebsiella aerogenes A, nutrient agar.

As for `O=C(Cc1cccs1)N[C@@H]1C(=O)N2C(C(=O)O)=C(Cc3cccnc3)CS[C@H]12` [Example 1, 3-(3-pyridylmethyl)-7β-(2-thienylacetamido)-3-cephem-4-carboxylic acid trifluoroacetate salt], the MIC in test [1] is 0.05 µg/mL; in [2] (Staph. aureus Russell, agar), 10 µg/mL; in test [3] (B. subtilis, agar), 0.25 µg/mL; in test [4], 0.1 µg/mL; in test [5] (β-Haemolytic Strep. CN10, agar), 0.1 µg/mL.
Regarding `O=C(O)C1=C(Cc2cccnc2)CS[C@@H]2[C@H](NC(=O)[C@H](O)c3ccccc3)C(=O)N12` [Example 3, 7β(D-α-hydroxyphenylacetamido)-3(3-pyridylmethyl)-3-cephem-4-carboxylic acid trifluoroacetate salt], the MIC in [6] was determined as 2.5 µg/mL; in [1], 0.25 µg/mL; in test [2] (Staph. aureus Russell, agar), 12.5 µg/mL; in [7], 2.5 µg/mL; in test [3] (B. subtilis, agar), 0.12 µg/mL; in test [8], 2.5 µg/mL. The MIC in [9] (setting [11]) is 2.5 µg/mL; in test [4], 0.5 µg/mL; in test [5] (β-Haemolytic Strep. CN10, agar), 0.25 µg/mL; in [10], 5 µg/mL.
As to `N[C@@H](C(=O)N[C@@H]1C(=O)N2C(C(=O)O)=C(Cc3cccnc3)CS[C@H]12)c1ccccc1` [Example 4, 7β(D-α-aminophenylacetamido)-3(3-pyridylmethyl)-3-cephem-4-carboxylic acid di-trifluoroacetate salt], the MIC in test [6] was 2.5 µg/mL; in test [1], 0.25 µg/mL; in test [2] (Staph. aureus Russell, agar) it was 2.5 µg/mL; in test [7], 1.25 µg/mL; in test [3] (B. subtilis, agar) it was 0.25 µg/mL; in test [8], 2.5 µg/mL. Besides, the MIC in test [9] (setting [11]) was 2.5 µg/mL; in [4], 0.5 µg/mL; in test [5] (β-Haemolytic Strep. CN10, agar), 0.25 µg/mL; in [10] it was 5 µg/mL.
Turning to `C[n+]1cccc(CC2=C(C(=O)O)N3C(=O)[C@@H](NC(=O)[C@H](O)c4ccccc4)[C@H]3SC2)c1` [Example 5, 7β(D-α-hydroxyphenylacetamide)-3(3-pyridylmethyl)-3-cephem-4-carboxylic acid metho-trifluoroacetate], the MIC in test [6] was 50 µg/mL; in test [1] it was 0.12 µg/mL; in test [2] (Staph. aureus Russell, agar) it was 5 µg/mL; in test [7], 50 µg/mL; in test [3] (B. subtilis, agar), 0.25 µg/mL; in test [8], 50 µg/mL. In addition, the MIC in [9] (setting [11]) was found to be 50 µg/mL; in test [4] it was 0.12 µg/mL; in test [5] (β-Haemolytic Strep. CN10, agar) it was 0.02 µg/mL; in test [10] it was 125 µg/mL.
On to `O=C(O)C(F)(F)F.O=C(O)C1=C(Cc2cccnc2)CS[C@@H]2[C@H](NC(=O)C(C(=O)Oc3ccccc3)c3ccccc3)C(=O)N12` (stereo partly drawn) [Example 6, 7β(α-phenoxycarbonylphenylacetamido)-3(3-pyridylmethyl)-3-cephem-4-carboxylic acid trifluoroacetate], for which the MIC in test [6] came to 12.5 µg/mL; in [1], 5 µg/mL; in test [2] (Staph. aureus Russell, agar), 25 µg/mL; in [7], 125 µg/mL; in [3], 12.5 µg/mL; in test [8] it was 50 µg/mL. Further, the results for the MIC in test [5] and in [10] were 12.5 µg/mL and 25 µg/mL, respectively.
As to `N[C@@H](C(=O)N[C@@H]1C(=O)N2C(C(=O)O)=C(Cc3ccccn3)CS[C@H]12)c1ccccc1` [Example 7, 7β(Dα-aminophenylacetamido)-3(2-pyridylmethyl)-3-cephem-4-carboxylic acid di-trifluoroacetate], the MIC came to 25 µg/mL (≈ 58.9 µM) in test [6]; 1.25 µg/mL (≈ 2.94 µM) in test [1]; 12.5 µg/mL (≈ 29.4 µM) in [2]; 12.5 µg/mL (≈ 29.4 µM) in [7]; 1.25 µg/mL (≈ 2.94 µM) in [3] (B. subtilis, agar); 50 µg/mL (≈ 118 µM) in [8]. In addition, the MIC in test [5] (β-Haemolytic Strep. CN10, agar) was determined as 1.25 µg/mL (≈ 2.94 µM); in test [10], 125 µg/mL (≈ 294 µM).
For `O=C(O)C1=C(Cc2cccnc2)CS[C@@H]2[C@H](NC(=O)[C@H](NC(=O)N3CCNC3=O)c3ccccc3)C(=O)N12` [Example 8, 7β-[D-2-(1-imidazolidonecarbonylamino)phenylacetamido]-3(3-pyridylmethyl)-3-cephem-4-carboxylic acid trifluoroacetic acid salt], the MIC was found to be 25 µg/mL in test [6]; 0.25 µg/mL in test [1]; 12.5 µg/mL in [2] (Staph. aureus Russell, agar); 25 µg/mL in test [7]; 1.25 µg/mL in test [3] (B. subtilis, agar); 25 µg/mL in test [8]. For the same compound, the MIC in test [9] (setting [11]) is 12.5 µg/mL; in test [4], 0.25 µg/mL; in test [5] (β-Haemolytic Strep. CN10, agar) it was 0.12 µg/mL; in [10], 50 µg/mL.
For the compound `O=C(COc1ccccc1)N[C@@H]1C(=O)N2C(C(=O)O)=C(Cc3cccnc3)CS[C@H]12` [Example 9, 7β-phenoxyacetamido-3(3-pyridylmethyl)-3-cephem-4-carboxylic acid trifluoroacetic acid salt], the MIC came out at 500 µg/mL in [6]; 0.02 µg/mL in test [1]; 0.12 µg/mL in [2] (Staph. aureus Russell, agar); 500 µg/mL in [7]; 0.25 µg/mL in test [3] (B. subtilis, agar); 500 µg/mL in [8]. Besides, the MIC was 500 µg/mL in test [9] (setting [11]); 0.12 µg/mL in [4]; 0.12 µg/mL in [5] (β-Haemolytic Strep. CN10, agar); 125 µg/mL in test [10].
In the case of `CCSCC(=O)N[C@@H]1C(=O)N2C(C(=O)O)=C(Cc3cccnc3)CS[C@H]12` [Example 10, 7β-ethylthioacetamido-3(3-pyridylmethyl)-3-cephem-4-carboxylic acid trifluoroacetic acid salt], the MIC in test [6] stood at 50 µg/mL; in test [1] it was 0.05 µg/mL; in test [2] (Staph. aureus Russell, agar) it was 1.25 µg/mL; in [7] it was 50 µg/mL; in test [3] (B. subtilis, agar) it was 0.5 µg/mL; in test [8], 50 µg/mL. The MIC in test [9] (setting [11]) came to 50 µg/mL; in test [4], 0.25 µg/mL; in [5] (β-Haemolytic Strep. CN10, agar), 0.12 µg/mL; in [10], 25 µg/mL.
Consider `N=C(N)N[C@@H](C(=O)N[C@@H]1C(=O)N2C(C(=O)O)=C(Cc3cccnc3)CS[C@H]12)c1ccccc1` [Example 11, 7β(Dα-guanidinophenylacetamido)-3(3-pyridylmethyl)-3-cephem-4-carboxylic acid di-trifluoroacetic acid salt], for which the MIC is greater than 100 µg/mL in test [6]; 0.5 µg/mL in test [1]; 2.5 µg/mL in [2] (Staph. aureus Russell, agar); greater than 100 µg/mL in [7]; 2.5 µg/mL in test [3] (B. subtilis, agar); greater than 100 µg/mL in [8]. Moreover, the MIC in test [9] (setting [11]) is greater than 100 µg/mL; in test [4], 0.1 µg/mL; in test [5] (β-Haemolytic Strep. CN10, agar) it was 0.1 µg/mL; in [10] it was greater than 100 µg/mL.
With `C[n+]1cccc(CC2=C(C(=O)O)N3C(=O)[C@@H](NC(=O)[C@H](N)c4ccccc4)[C@H]3SC2)c1` [Example 12, 7β(Dα-aminophenylacetamido)-3(3-pyridylmethyl)-3-cephem-4-carboxylic acid metho-trifluoroacetate trifluoroacetic acid salt], the MIC in test [6] was 50 µg/mL; in [1], 0.25 µg/mL; in test [2] (Staph. aureus Russell, agar), 12.5 µg/mL; in [7], 50 µg/mL; in test [3] (B. subtilis, agar), 0.5 µg/mL; in test [8], 50 µg/mL. Moreover, the MIC stood at 50 µg/mL in test [9] (setting [11]); 0.25 µg/mL in [4]; 0.05 µg/mL in test [5] (β-Haemolytic Strep. CN10, agar); 125 µg/mL in test [10].
Consider `N[C@@H](C(=O)N[C@@H]1C(=O)N2C(C(=O)O)=C(Cc3cccnc3)CS[C@H]12)c1ccc(O)cc1` [Example 13, 7-(2-Amino-2-p-hydroxyphenylacetamido)-4-carboxy-3-(3-pyridylmethyl) ceph-3-em bis-trifluoroacetic acid salt], for which the MIC in test [6] amounted to 5 µg/mL; in test [1], 0.25 µg/mL; in [2] (Staph. aureus Russell, agar) it was 2.5 µg/mL; in [7] it was 1.25 µg/mL; in test [3] (B. subtilis, agar) it was 0.25 µg/mL; in test [8] it was 5 µg/mL. For the same compound, the MIC in [9] (Klebsiella aerogenes) is 1.25 µg/mL; in test [4], 0.12 µg/mL; in [5] (β-Haemolytic Strep. CN10, agar), 0.12 µg/mL; in [10] it was 5 µg/mL.
For the compound `O=C(O)CSCC(=O)N[C@@H]1C(=O)N2C(C(=O)O)=C(Cc3cccnc3)CS[C@H]12` [Example 14, 4-Carboxy-7-carboxymethylthioacetamido-3-(3-pyridylmethyl)ceph-3-em trifluoroacetic acid salt], the MIC is 50 µg/mL in test [6]; 1.25 µg/mL in [1]; 12.5 µg/mL in [2] (Staph. aureus Russell, agar); 50 µg/mL in test [7]; 25 µg/mL in test [3] (B. subtilis, agar); 50 µg/mL in test [8]. Also, the MIC in [9] (setting [11]) came out at 25 µg/mL; in test [4], 12.5 µg/mL; in [5] (β-Haemolytic Strep. CN10, agar) it was 5 µg/mL; in [10], 50 µg/mL.
For `O=C(CSc1ccncc1)N[C@@H]1C(=O)N2C(C(=O)O)=C(Cc3cccnc3)CS[C@H]12` [Example 16, 7β(4-pyridylthioacetamido)-3(3-pyridylmethyl)-3-cephem-4-carboxylic acid di-trifluoroacetic acid salt], the MIC in [6] is 25 µg/mL; in [1], less than 0.02 µg/mL; in [2] (Staph. aureus Russell, agar) it was 1 µg/mL; in test [7] it was 10 µg/mL; in test [3] (B. subtilis, agar), less than 0.02 µg/mL; in test [8], 25 µg/mL. For the same compound, the MIC in [9] (setting [11]) was 5 µg/mL; in [4], less than 0.02 µg/mL; in test [5] (β-Haemolytic Strep. CN10, agar), less than 0.02 µg/mL; in test [10], 100 µg/mL.
